This note sets out measurements from PubChem BioAssay AID280 (DTP/NCI, 2004).

The test system of this assay is nude mice, LOX melanoma ip, survival T/C. In words: NCI In Vivo Anticancer Drug Screen. Data for tumor model Human Amelanotic Melanoma (LOX) (intraperitoneal) in NU/NU BALB/C (nude) mice. Conditions: endpoint: median survival time, higher = longer survival. The protocol: The antitumor activity of compounds was measured in mice bearing transplantable tumors. Survival or tumor size were measured and the results are expressed as the measurement made in the treated group (T) divided by the measurement made in the vehicle treated control group (C). The tumor model used in this assay is Human Amelanotic Melanoma (LOX) (intraperitoneal) in NU/NU BALB/C (nude) mice

[1] abbreviates: dose: 37.5 mg/kg/injection, schedule: Q04DX003 (ip), vehicle: saline with Tween-80.
The mark [2] stands for this setting: dose: 75.0 mg/kg/injection, schedule: Q04DX003 (ip), vehicle: saline with Tween-80.
Setting [3] is: dose: 300.0 mg/kg/injection, schedule: Q04DX003 (ip), vehicle: saline with Tween-80.
Where [4] appears, read: dose: 600.0 mg/kg/injection, schedule: Q04DX003 (ip), vehicle: saline with Tween-80.
[5] abbreviates: dose: 50.0 mg/kg/injection, schedule: Q04DX003 (ip), vehicle: saline.
Where [6] appears, read: dose: 100.0 mg/kg/injection, schedule: Q04DX003 (ip), vehicle: saline.
Setting [7] is: dose: 50.0 mg/kg/injection, schedule: Q04DX003 (ip), vehicle: saline with Tween-80.
[8] abbreviates: dose: 100.0 mg/kg/injection, schedule: Q04DX003 (ip), vehicle: saline with Tween-80.
Where [9] appears, read: dose: 50.0 mg/kg/injection, schedule: Q04DX003 (ip), vehicle: Klucel (hydroxypropylcellulose) (HPC).
Setting [10] is: dose: 200.0 mg/kg/injection, schedule: Q04DX003 (ip), vehicle: Klucel (hydroxypropylcellulose) (HPC).

Values joined by “and” are separate entries in the source; they are usually repeats but may differ in a detail not shown here. Equal entries are not always repeated. Inconclusive results and toxic doses are left out.

Turning to `CN=C(N)N/N=C(\C)c1ccc2sc3ccc(/C(C)=N/NC(N)=NC)cc3c2c1`, the T/C was 121 % of control under setting [1], 117 % of control under setting [2], 182 % of control under setting [3] and 116 % of control under setting [4].
As to `N/C(=N/N=C/c1cc(Br)cc(Br)c1O)NO`, the T/C (dose: 25.0 mg/kg/injection, schedule: Q04DX003 (ip), vehicle: suspension in saline) is 98 % of control; the T/C (dose: 50.0 mg/kg/injection, schedule: Q04DX003 (ip), vehicle: suspension in saline) is 96 % of control; the T/C (dose: 100.0 mg/kg/injection, schedule: Q04DX003 (ip), vehicle: suspension in saline) was 86 % of control.
Consider `NC(=O)c1cc(Cl)nc2nc(Cl)nc(N)c12`, for which the T/C (dose: 150.0 mg/kg/injection, schedule: Q04DX003 (ip), vehicle: saline with Tween-80) is 92 % of control; the T/C under setting [3] was 111 % of control; the T/C under setting [4] was 94 % of control.
Consider `O=CC(CO)CC(C=O)n1cnc2c(=O)[nH]cnc21` (stereo not drawn), for which the T/C under setting [5] is 109 % of control; the T/C under setting [6] was 102 % of control; the T/C (dose: 200.0 mg/kg/injection, schedule: Q04DX003 (ip), vehicle: saline) is 103 % of control; the T/C (dose: 400.0 mg/kg/injection, schedule: Q04DX003 (ip), vehicle: saline) was 113 % of control; the T/C (dose: 800.0 mg/kg/injection, schedule: Q04DX003 (ip), vehicle: saline) was 100 % of control.
With `NC(Cn1ccc(=O)c(O)c1)C(=O)O` (stereo not drawn), the T/C is, setting by setting: (dose: 75.0 mg/kg/injection, schedule: Q04DX003 (ip), vehicle: suspension in saline) 105 % of control; (dose: 150.0 mg/kg/injection, schedule: Q04DX003 (ip), vehicle: suspension in saline) 105 % of control; (dose: 300.0 mg/kg/injection, schedule: Q04DX003 (ip), vehicle: suspension in saline) 109 % of control; (dose: 600.0 mg/kg/injection, schedule: Q04DX003 (ip), vehicle: suspension in saline) 100 % of control; (dose: 1200.0 mg/kg/injection, schedule: Q04DX003 (ip), vehicle: suspension in saline) 104 % of control.
Turning to `Clc1cccc(Cl)c1C(Nc1nncs1)Nc1nncs1`, the T/C runs as follows: under setting [7], 106 % of control; under setting [8], 106 % of control.
Take `NC(CNC(=O)CBr)C(=O)O` (stereo not drawn): the T/C (dose: 12.5 mg/kg/injection, schedule: Q04DX003 (ip), vehicle: water) was 97 % of control; the T/C (dose: 25.0 mg/kg/injection, schedule: Q04DX003 (ip), vehicle: water) is 93 % of control; the T/C (dose: 50.0 mg/kg/injection, schedule: Q04DX003 (ip), vehicle: water) is 98 % of control; the T/C (dose: 100.0 mg/kg/injection, schedule: Q04DX003 (ip), vehicle: water) is 90 % of control; the T/C (dose: 200.0 mg/kg/injection, schedule: Q04DX003 (ip), vehicle: water) was 88 % of control.
Take `Cc1cccc(OCC(O)CN2CC2)c1` (stereo not drawn): the T/C is, setting by setting: (dose: 25.0 mg/kg/injection, schedule: Q04DX003 (ip), vehicle: saline with Tween-80) 104 % of control; under setting [7], 122 % of control and 99 % of control; under setting [8], 121 % of control; (dose: 200.0 mg/kg/injection, schedule: Q04DX003 (ip), vehicle: saline with Tween-80) 122 % of control.
Regarding `O=C(O)CCCc1ccc(N(CCCl)CCCl)cc1`, the T/C runs as follows: (dose: 0.2 mg/kg/injection, schedule: Q04DX003 (ip), vehicle: Klucel (hydroxypropylcellulose) (HPC)) 90 % of control; (dose: 0.3 mg/kg/injection, schedule: Q04DX003 (ip), vehicle: Klucel (hydroxypropylcellulose) (HPC)) 95 % of control; (dose: 12.0 mg/kg/injection, schedule: Q01DX001 (ip), vehicle: Klucel (hydroxypropylcellulose) (HPC)) 117 % of control; (dose: 12.0 mg/kg/injection, schedule: Q01DX005 (ip), vehicle: Klucel (hydroxypropylcellulose) (HPC)) 213 % of control; (dose: 12.0 mg/kg/injection, schedule: Q01DX015 (ip), vehicle: Klucel (hydroxypropylcellulose) (HPC)) 173 % of control; (dose: 12.0 mg/kg/injection, schedule: Q04DX003 (ip), vehicle: Klucel (hydroxypropylcellulose) (HPC)) 116 % of control. The T/C reads like this: (dose: 18.0 mg/kg/injection, schedule: Q01DX001 (ip), vehicle: Klucel (hydroxypropylcellulose) (HPC)) 161 % of control; (dose: 18.0 mg/kg/injection, schedule: Q01DX005 (ip), vehicle: Klucel (hydroxypropylcellulose) (HPC)) 190 % of control; (dose: 18.0 mg/kg/injection, schedule: Q01DX015 (ip), vehicle: Klucel (hydroxypropylcellulose) (HPC)) 346 % of control; (dose: 27.0 mg/kg/injection, schedule: Q01DX005 (ip), vehicle: Klucel (hydroxypropylcellulose) (HPC)) 346 % of control; (dose: 27.0 mg/kg/injection, schedule: Q01DX015 (ip), vehicle: Klucel (hydroxypropylcellulose) (HPC)) 346 % of control; (dose: 27.0 mg/kg/injection, schedule: Q04DX003 (ip), vehicle: Klucel (hydroxypropylcellulose) (HPC)) 210 % of control and 248 % of control and 97 % of control.
Turning to `CC[C@@]1(O)C(=O)OCc2c1cc1n(c2=O)Cc2cc3c(N)cccc3nc2-1`, the T/C reads like this: (dose: 0.5 mg/kg/injection, schedule: Q04DX003 (ip), vehicle: saline with Tween-80) 213 % of control; (dose: 0.86 mg/kg/injection, schedule: Q04DX003 (ip), vehicle: saline with Tween-80) 314 % of control; (dose: 1.0 mg/kg/injection, schedule: Q04DX003 (ip), vehicle: saline with Tween-80) 327 % of control; (dose: 1.44 mg/kg/injection, schedule: Q04DX003 (ip), vehicle: saline with Tween-80) 314 % of control; (dose: 2.0 mg/kg/injection, schedule: Q04DX003 (ip), vehicle: saline with Tween-80) 327 % of control; (dose: 2.4 mg/kg/injection, schedule: Q04DX003 (ip), vehicle: saline with Tween-80) 314 % of control. The T/C (dose: 4.0 mg/kg/injection, schedule: Q04DX003 (ip), vehicle: saline with Tween-80) was 314 % of control and 327 % of control.
For the molecule `N#Cc1c(-c2ccc(F)cc2)c(-c2ccc(F)cc2)nn(CCO)c1=O`, the T/C is, setting by setting: (dose: 12.5 mg/kg/injection, schedule: Q04DX003 (ip), vehicle: distilled water + Tween-80) 98 % of control; (dose: 25.0 mg/kg/injection, schedule: Q04DX003 (ip), vehicle: distilled water + Tween-80) 111 % of control; (dose: 50.0 mg/kg/injection, schedule: Q04DX003 (ip), vehicle: distilled water + Tween-80) 115 % of control; (dose: 72.0 mg/kg/injection, schedule: Q04DX003 (ip), vehicle: distilled water + Tween-80) 110 % of control; (dose: 100.0 mg/kg/injection, schedule: Q04DX003 (ip), vehicle: distilled water + Tween-80) 122 % of control; (dose: 120.0 mg/kg/injection, schedule: Q04DX003 (ip), vehicle: distilled water + Tween-80) 124 % of control. Further, the T/C runs as follows: (dose: 200.0 mg/kg/injection, schedule: Q04DX003 (ip), vehicle: distilled water + Tween-80) 120 % of control; (dose: 333.33 mg/kg/injection, schedule: Q04DX003 (ip), vehicle: distilled water + Tween-80) 166 % of control; (dose: 555.55 mg/kg/injection, schedule: Q04DX003 (ip), vehicle: distilled water + Tween-80) 212 % of control.
Consider `O=C([O][Bi]([c]1ccccc1)[c]1ccccc1)c1ccccc1`, for which the T/C runs as follows: (dose: 12.5 mg/kg/injection, schedule: Q04DX003 (ip), vehicle: Klucel (hydroxypropylcellulose) (HPC)) 98 % of control; under setting [9], 211 % of control; under setting [10], 103 % of control.
Turning to `CN=NN(C)C(=O)NC`, the T/C is 154 % of control (dose: 25.0 mg/kg/injection, schedule: Q04DX003 (ip), vehicle: saline); 188 % of control under setting [5]; 230 % of control under setting [6].
Regarding `CC1=C(C(N)=O)C(c2ccccc2)NC(=S)N1` (stereo not drawn), the T/C (dose: 25.0 mg/kg/injection, schedule: Q04DX003 (ip), vehicle: Klucel (hydroxypropylcellulose) (HPC)) was 96 % of control; the T/C under setting [9] was 98 % of control; the T/C (dose: 100.0 mg/kg/injection, schedule: Q04DX003 (ip), vehicle: Klucel (hydroxypropylcellulose) (HPC)) is 97 % of control; the T/C under setting [10] is 95 % of control; the T/C (dose: 400.0 mg/kg/injection, schedule: Q04DX003 (ip), vehicle: Klucel (hydroxypropylcellulose) (HPC)) was 86 % of control.
On to `c1ccc(OCC2CO2)c(OCC2CO2)c1` (stereo not drawn), for which the T/C by setting is: under setting [1], 118 % of control; under setting [2], 109 % of control; under setting [3], 265 % of control.
